Literature values, collected in patent publication US20180271827A1, “CANNABINOID COMPOSITIONS AND METHODS OF MAKING” (Pasenture, Inc., priority 2015, published 2018).
“Also recorded” adds a separate entry of the source.

settings: Table A, representative terpenes; properties or predicted properties

**Q.** With CC1=CC[C@@H](C(C)(C)O)CC1 [a-terpineol] as the compound, how does the Properties read?
**A.** Sedative, Antibiotic, AChE inhibitor, Antioxidant,; also recorded: Antimalarial

**Q.** For CC12CCC(CC1)C(C)(C)O2 [1,8-cineole (eucalyptol), 1,8-cineole], which Properties is on record?
**A.** AChE inhibitor, Increases cerebral, blood flow,; also recorded: Stimulant, Antibiotic, Antiviral, Antiinflammatory,; also recorded: Antinociceptive

**Q.** Which Properties does the source give for C=CC(=C)CCC=C(C)C [ß-myrcene] here?
**A.** Analgesic. Antiinflammatory, Antibiotic,; also recorded: Antimutagenic

**Q.** For C=C(C)[C@H]1CC=C(C)CC1 [d-limonene], which Properties is on record?
**A.** Antidepressant, Antimutagenic

**Q.** With C=CC(C)(O)CCC=C(C)C (stereo not drawn) [linalool] as the compound, how does the Properties read?
**A.** Sedative, Antidepressant, Anxiolytic, Immune; also recorded: potentiator

**Q.** For Cc1ccc(C(C)C)cc1 [p-cymene], which Properties is on record?
**A.** Antibiotic, Anticandidal, AChE inhibitor

**Q.** With CC1=CCC2CC1C2(C)C (stereo not drawn) [a-pinene] as the compound, how does the Properties read?
**A.** Antiinflammatory, Bronchodilator, Stimulant,; also recorded: Antibiotic, Antineoplastic, AChE inhibitor

**Q.** Which Properties does the source give for CC1=CCC(O)(C(C)C)CC1 (stereo not drawn) [terpineol-4-ol] here?
**A.** AChE inhibitor, Antibiotic

**Q.** For CC(C)=C1CC[C@@H](C)CC1=O [pulegone], which Properties is on record?
**A.** Antipyretic

**Q.** For C=C1CC/C=C(/C)CC[C@@H]2[C@@H]1CC2(C)C [ß-caryophyllene], which Properties is on record?
**A.** Antiinflammatory, Cytoprotective (gastric mucosa),; also recorded: Antimalarial

same assay, conditions: Table B, representative cannabinoids; properties or predicted properties

**Q.** Which Properties does the source give for C=C(C)[C@@H]1CCC(C)=C[C@H]1c1c(O)cc(CCCCC)cc1O [cannabidiol (CBD), cannabidiol, reference compound] here?
**A.** Antispasmodic; also recorded: Anxiolytic, Analgesic, Antipsychotic,; also recorded: Antiinflammatory, Antioxidant,

**Q.** For CCCCCc1cc(O)c2c(c1)OC(C)(C)c1ccc(C)cc1-2 [Cannabinol (CBN), Cannabinol], which Properties is on record?
**A.** Oxidation, breakdown, product,; also recorded: Sedative, Antibiotic

**Q.** Which Properties does the source give for CCCCCc1cc(O)c2c(c1)OC(C)(C)[C@@H]1CC=C(C)C[C@@H]21 [?-8-tetrahydrocannabinol (?-8-THC), ?-8-tetrahydrocannabinol] here?
**A.** Resembles ?-9-THC, Less psychoactive,; also recorded: More stable Antiemetic

**Q.** For CCCc1cc(O)c2c(c1)OC(C)(C)[C@@H]1CCC(C)=C[C@@H]21 [tetrahydrocannabivarin (THCV), tetrahydrocannabivarin], which Properties is on record?
**A.** Analgesic, Euphoriant

**Q.** With CCCCCc1cc(O)c2c(c1)OC(C)(CCC=C(C)C)C=C2 (stereo not drawn) [cannabichromene (CBC), cannabichromene] as the compound, how does the Properties read?
**A.** Antiinflammatory, Antibiotic,; also recorded: Antifungal

**Q.** For CCCCCc1cc(O)c2c(c1)OC(C)(C)[C@@H]1CCC(C)=C[C@@H]21 [9-tetrahydrocannabinol (THC), 9-tetrahydrocannabinol, reference compound], which Properties is on record?
**A.** Euphoriant, Analgesic,; also recorded: Antiinflammatory, Antioxidant,; also recorded: Antiemetic

**Q.** With CCCCCc1cc(O)c(C/C=C(\C)CCC=C(C)C)c(O)c1 [cannabigerol (CBG), cannabigerol] as the compound, how does the Properties read?
**A.** Antiinflammatory, Antibiotic,; also recorded: Antifungal

same assay, conditions: Table C, flavonoid and phytosterol components derived from cannabis plants; properties or predicted properties

**Q.** For O=c1c(O)c(-c2ccc(O)c(O)c2)oc2cc(O)cc(O)c12 [quercetin], which Properties is on record?
**A.** Antioxidant, Antimutagenic, Antiviral,; also recorded: Antineoplastic

**Q.** For CC[C@H](CC[C@@H](C)[C@H]1CC[C@H]2[C@@H]3CC=C4C[C@@H](O)CC[C@]4(C)[C@H]3CC[C@]12C)C(C)C [ß-sitosterol], which Properties is on record?
**A.** Antiinflammatory, 5-a-reductase, inhibitor

**Q.** With COc1cc(-c2cc(=O)c3c(O)c(C/C=C(\C)CCC=C(C)C)c(O)cc3o2)ccc1O [cannflavin A] as the compound, how does the Properties read?
**A.** COX inhibitor, LO inhibitor

**Q.** For O=c1cc(-c2ccc(O)cc2)oc2cc(O)cc(O)c12 [apigenin], which Properties is on record?
**A.** Anxiolytic, Antiinflammatory, Estrogenic
